Counter-ions that a name gives are not always drawn.
Molecular target: T1, human PAH with the R408W mutation (Homo sapiens, UniProt P00439, R408W)
T1 construct: expressed in transfected cells
T1 sequence (P00439 1-452 R408W): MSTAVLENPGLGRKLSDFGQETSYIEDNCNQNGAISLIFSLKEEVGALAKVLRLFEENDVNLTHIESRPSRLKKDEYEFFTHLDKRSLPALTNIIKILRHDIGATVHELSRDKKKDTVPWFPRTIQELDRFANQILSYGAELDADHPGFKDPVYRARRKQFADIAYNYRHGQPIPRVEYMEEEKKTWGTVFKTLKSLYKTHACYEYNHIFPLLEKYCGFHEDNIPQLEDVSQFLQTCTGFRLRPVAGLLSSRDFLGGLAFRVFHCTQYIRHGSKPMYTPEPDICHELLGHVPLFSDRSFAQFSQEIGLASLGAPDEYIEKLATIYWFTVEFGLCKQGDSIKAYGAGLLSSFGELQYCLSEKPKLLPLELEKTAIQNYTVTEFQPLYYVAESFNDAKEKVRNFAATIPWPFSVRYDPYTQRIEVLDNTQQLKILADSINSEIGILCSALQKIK
Experiment: Cell Based Phenylalanine Flux Assay
Parameters: scale not given here
Conditions: A375 cells expressing human R408W PAH; 24 hrs compound incubation; 13C-Tyrosine by LC-MS; average where tested multiple times; read-out: AC50

Row | SMILES | AC50
1 | O=C(c1cnc(C2CC2)o1)N1CCc2[nH]cnc2[C@@H]1c1nc2ccccc2s1 [Example 1188, (R)-(4-(benzo[d]thiazol-2-yl)-6,7-dihydro-1H-imidazo[4,5-c]pyridin-5(4H)-yl)(2-cyclopropyloxazol-5-yl)methanone] | 1 to 5 µM
2 | O=C(c1oc(CN2CCOCC2)nc1C(F)(F)F)N1CCc2[nH]cnc2[C@@H]1c1nc2ccccc2s1 [Example 1628, (R)-(4-(benzo[d]thiazol-2-yl)-6,7-dihydro-1H-imidazo[4,5-c]pyridin-5(4H)-yl)(2-(morpholinomethyl)-4-(trifluoromethyl)oxazol-5-yl)methanone] | < 0.5 µM
3 | O=C(c1nnc(N2CCOCC2)o1)N1CCc2[nH]cnc2[C@H]1c1nc2ccccc2s1 [Example 1585] | 0.5 to 1 µM
4 | O=C(c1oc(C2CC2)nc1C(F)(F)F)N1CCc2[nH]cnc2[C@@H]1c1nc2c(F)cccc2s1 [Example 2184, (R)-(2-cyclopropyl-4-(trifluoromethyl)oxazol-5-yl)(4-(4-fluorobenzo[d]thiazol-2-yl)-1,4,6,7-tetrahydro-5H-imidazo[4,5-c]pyridin-5-yl)methanone] | < 0.5 µM
5 | CNC(C)(C)c1nc(C(F)F)c(C(=O)N2CCc3[nH]cnc3[C@@H]2c2nc3c(F)cccc3s2)o1 [Example 2070, (R)-(4-(difluoromethyl)-2-(2-(methylamino)propan-2-yl)oxazol-5-yl)(4-(4-fluorobenzo[d]thiazol-2-yl)-6,7-dihydro-1H-imidazo[4,5-c]pyridin-5(4H)-yl)methanone] | < 0.5 µM
6 | COCCc1ccc2c(C(=O)N3CCc4[nH]cnc4[C@@H]3c3nc4ccccc4s3)c(C#N)nn2c1 [Example 1868, (R)-3-(4-(benzo[d]thiazol-2-yl)-4,5,6,7-tetrahydro-1H-imidazo[4,5-c]pyridine-5-carbonyl)-6-(2-methoxyethyl)pyrazolo[1,5-a]pyridine-2-carbonitrile] | 1 to 5 µM
7 | Cc1cccc2sc([C@@H]3c4nc[nH]c4CCN3C(=O)c3ncnn3C)nc12 [Example 2015] | 0.5 to 1 µM
8 | O=C(CCc1nccs1)N1CCc2[nH]cnc2[C@H]1c1nc2ccc(Br)cc2s1 [Example 1081, (S)-1-(4-(6-bromobenzo[d]thiazol-2-yl)-6,7-dihydro-1H-imidazo[4,5-c]pyridin-5(4H)-yl)-3-(thiazol-2-yl)propan-1-one] | 0.5 to 1 µM
9 | O=C(CC1CC1)N1CCc2[nH]cnc2[C@@H]1c1nc2cccc(F)c2s1 [Example 1258, (R)-2-cyclopropyl-1-(4-(7-fluorobenzo[d]thiazol-2-yl)-6,7-dihydro-1H-imidazo[4,5-c]pyridin-5(4H)-yl)ethanone] | 0.5 to 1 µM
10 | CC(C)(F)c1ncc(C(=O)N2CCc3[nH]cnc3[C@H]2c2nc3c(F)cccc3s2)s1 [Example 1486, (S)-(4-(4-fluorobenzo[d]thiazol-2-yl)-6,7-dihydro-1H-imidazo[4,5-c]pyridin-5(4H)-yl)(2-(2-fluoropropan-2-yl)thiazol-5-yl)methanone] | < 0.5 µM
11 | CC(O)c1nc(Br)c(C(=O)N2CCc3[nH]cnc3[C@@H]2c2nc3c(F)cccc3s2)o1 (single isomer, unassigned) [Example 2060] | 0.5 to 1 µM
12 | Clc1cnc(CN2CCc3[nH]cnc3[C@@H]2c2nc3ccccc3[nH]2)s1 [Example 979, (R)-2-((4-(1H-benzo[d]imidazol-2-yl)-6,7-dihydro-1H-imidazo[4,5-c]pyridin-5(4H)-yl)methyl)-5-chlorothiazole] | > 5 µM
13 | O=C(c1cnc(-c2ncccc2F)s1)N1CCc2[nH]cnc2[C@@H]1c1nc2ccccc2s1 [Example 1374, (R)-(4-(benzo[d]thiazol-2-yl)-6,7-dihydro-1H-imidazo[4,5-c]pyridin-5(4H)-yl)(2-(3-fluoropyridin-2-yl)thiazol-5-yl)methanone] | 0.5 to 1 µM
14 | CN(C)CCc1nc(C(F)(F)F)c(C(=O)N2CCc3[nH]cnc3[C@@H]2c2nc3ccccc3s2)o1 [Example 1582, (R)-(4-(benzo[d]thiazol-2-yl)-6,7-dihydro-1H-imidazo[4,5-c]pyridin-5(4H)-yl)(2-(2-(dimethylamino)ethyl)-4-(trifluoromethyl)oxazol-5-yl)methanone] | < 0.5 µM
15 | O=C(c1nc2ccccc2o1)N1CCc2[nH]cnc2[C@H]1c1nc2ccccc2s1 [Example 1129, (S)-benzo[d]oxazol-2-yl(4-(benzo[d]thiazol-2-yl)-1,4,6,7-tetrahydro-5H-imidazo[4,5-c]pyridin-5-yl)methanone] | < 0.5 µM
16 | [2H][C@]1(c2nc3ccccc3s2)c2nc[nH]c2CCN1C(=O)c1ocnc1C [Example 2160, [(4R)-4-(1,3-benzothiazol-2-yl)-4-deuterio-6,7-dihydro-1H-imidazo[4,5-c]pyridin-5-yl]-(4-methyloxazol-5-yl)methanone] | > 5 µM
17 | O=C(c1oc(N2CCOCC2)nc1C(F)(F)F)N1CCc2[nH]cnc2[C@H]1c1nc2ccccc2s1 [Example 2165] | < 0.5 µM
18 | O=C(c1cnn2cc(Cl)ccc12)N1CCc2[nH]cnc2[C@@H]1c1nc2ccccc2s1 [Example 1064, (R)-(4-(benzo[d]thiazol-2-yl)-6,7-dihydro-1H-imidazo[4,5-c]pyridin-5(4H)-yl)(6-chloropyrazolo[1,5-a]pyridin-3-yl)methanone] | > 5 µM
19 | Cn1ncc(Cl)c1C(=O)N1CCc2[nH]cnc2[C@H]1c1nc2c(F)cccc2s1 [Example 1733] | 0.5 to 1 µM
20 | O=C(c1nncs1)N1CCc2[nH]cnc2[C@H]1c1nc2ccccc2s1 [Example 1068] | 0.5 to 1 µM
21 | O=C(c1oc(-c2ccccn2)nc1C(F)(F)F)N1CCc2[nH]cnc2[C@H]1c1nc2c(F)cccc2s1 [Example 1611, (S)-(4-(4-fluorobenzo[d]thiazol-2-yl)-6,7-dihydro-1H-imidazo[4,5-c]pyridin-5(4H)-yl)(2-(pyridin-2-yl)-4-(trifluoromethyl)oxazol-5-yl)methanone] | < 0.5 µM
22 | O=C(c1ccnn1C(F)F)N1CCc2[nH]cnc2[C@@H]1c1nc2c(F)cccc2s1 [Example 1740, (R)-(1-(difluoromethyl)-1H-pyrazol-5-yl)(4-(4-fluorobenzo[d]thiazol-2-yl)-6,7-dihydro-1H-imidazo[4,5-c]pyridin-5(4H)-yl)methanone] | 1 to 5 µM
23 | O=C(c1cnn2ccc(Cl)cc12)N1CCc2[nH]cnc2[C@@H]1c1nc2ccc(F)cc2s1 [Example 1152, (R)-(5-chloropyrazolo[1,5-a]pyridin-3-yl)(4-(6-fluorobenzo[d]thiazol-2-yl)-6,7-dihydro-1H-imidazo[4,5-c]pyridin-5(4H)-yl)methanone] | > 5 µM
24 | O=C(C1CN(c2ncccc2F)C1)N1CCc2[nH]cnc2[C@H]1c1nc2ccccc2s1 [Example 1909] | 0.5 to 1 µM
25 | CC1(C(=O)N2CCc3[nH]cnc3[C@H]2c2nc3ccccc3s2)CC1(F)F (single isomer, unassigned) [Example 1292] | 1 to 5 µM
26 | O=C(CCc1nccs1)N1CCc2[nH]cnc2[C@H]1c1nc(-c2ccccc2)cs1 [Example 2143] | 1 to 5 µM
27 | O=C(c1cnc(-c2cc(C(F)(F)F)ccn2)s1)N1CCc2[nH]cnc2[C@H]1c1nc2ccccc2s1 [Example 1357] | < 0.5 µM

Same assay, conditions: A375 cells expressing human R408W PAH; 24 hrs with compound; 13C-Tyrosine by LC-MS; average where tested multiple times

Row | SMILES | AC50
28 | COCc1ccc2c(C(=O)N3CCc4[nH]cnc4C3c3nc4ccccc4s3)c(C(F)F)nn2c1 (stereo not drawn) | E, E

Same assay, conditions: A375 cells expressing human R408W PAH; 24 hrs with compound; 13C-Tyrosine by LC-MS; average where tested multiple times; read-out: AC50

Row | SMILES | AC50
29 | O=C(c1cnn2cc(N3CCCC3)ccc12)N1CCc2[nH]cnc2C1c1nc2ccccc2s1 (stereo not drawn) | 1 to 5 µM
30 | CC(C)(O)c1cc(C(=O)N2CCc3[nH]cnc3C2c2nc3c(F)cccc3s2)no1 (stereo not drawn) | > 5 µM
31 | O=C(c1ccon1)N1CCc2[nH]cnc2[C@H]1c1nc2ccccc2[nH]1 [(S)-(4-(1H-benzo[d]imidazol-2-yl)-1,4,6,7-tetrahydro-5H-imidazo[4,5-c]pyridin-5-yl)(isoxazol-3-yl)methanone] | 1 to 5 µM
32 | Cc1nc(C(C)(C)O)oc1C(=O)N1CCCc2[nH]cnc2C1c1nc2ccccc2s1 (stereo not drawn) | > 5 µM
33 | CC(=O)Cn1cc(C(=O)N2CCc3[nH]cnc3C2c2nc3c(F)cccc3s2)cn1 (stereo not drawn) | 1 to 5 µM
34 | Cn1cc(-c2cnc(CC(=O)N3CCc4[nH]cnc4C3c3nc4ccccc4s3)s2)cn1 (stereo not drawn) | > 5 µM
35 | CC(C)(O)c1cc(C(=O)N2CCc3[nH]cnc3C2c2nc3ccccc3s2)on1 (stereo not drawn) | 1 to 5 µM
36 | Cn1cc(-c2ncc(C(=O)N3CCc4[nH]cnc4[C@H]3c3nc4ccccc4[nH]3)o2)cn1 [(S)-(4-(1H-benzo[d]imidazol-2-yl)-6,7-dihydro-1H-imidazo[4,5-c]pyridin-5(4H)-yl)(2-(1-methyl-1H-pyrazol-4-yl)oxazol-5-yl)methanone hydrochloride] | > 5 µM
37 | COc1cccc(C=CC(=O)N2CCc3[nH]cnc3C2c2nc3ccccc3[nH]2)c1 (stereo not drawn) | 1 to 5 µM
38 | Cc1nnc(CC(=O)N2CCc3[nH]cnc3[C@H]2c2nc3ccccc3s2)s1 (single isomer, unassigned) | 1 to 5 µM
39 | O=C(Cc1nc(C(F)(F)F)cs1)N1CCc2[nH]cnc2[C@H]1c1nc2ccccc2[nH]1 [(S)-1-(4-(1H-benzo[d]imidazol-2-yl)-1,4,6,7-tetrahydro-5H-imidazo[4,5-c]pyridin-5-yl)-2-(4-(trifluoromethyl)thiazol-2-yl)ethan-1-one] | 1 to 5 µM
40 | O=C(c1cncs1)N1CCc2[nH]cnc2C1c1nc2ccc(F)cc2s1 (stereo not drawn) | 1 to 5 µM
41 | O=C(c1ccon1)N1CCc2[nH]cnc2C1c1nc2ccc(F)cc2[nH]1 (stereo not drawn) | > 5 µM
42 | Cc1nc(-c2ccccn2)oc1C(=O)N1CC(C)c2[nH]cnc2C1c1nc2ccccc2s1 (stereo not drawn) | > 5 µM
